In patent publication US9932340B2, “Substituted indoles” (AbbVie Inc., priority 2014, dated 2018):

What follows are compounds tested against SUV420H1 enzyme (Homo sapiens, UniProt Q4FZB7) (assay: TR-FRET SAH SUV420H1 enzyme inhibition assay). Conditions: Histone Peptide H4(8-30)me1 and SAM, overnight at room temp, TR-FRET detection of SAH, read-out: TR-FRET SAH_SUV420H1 IC50.
Type: biochemical
Method: Test compounds were dispensed by a Labcyte Echo in 384-well low volume assay plates with 3-fold serial dilutions from 50 μM to 0.00075 μM. 5 μL of SUV420H1 enzyme (Abbvie) at 90 nM was added to all wells except the no enzyme control wells, and incubated for 30 minutes at room temp before 5 μL of Histone Peptide H4(8-30)me1 (Anaspec) at 5 nM and SAM at 4 nM was added to all wells. The plates were incubated in a humidified chamber overnight at room temp and then 10 μL of the detection reagent that contained RIPA buffer (50 mM Tris-HCl, pH 8.0, 150 mM sodium chloride, 1.0% Igepal CA-630 (NP-40), 0.5% sodium deoxycholate and 0.1% sodium dodecyl sulfate) (Sigma) with 2 nM of Terbium chelate anti S-adenosyl-L-homocysteine (SAH) (Abbvie) antibody and Oregon Green labeled SAH at 4 nM was added. The plates were further incubated for 4 hours at room temperature. The plates were read in a Perkin Elmer Envision using a TR-FRET protocol with Excitation set at 335 nm and Emission at 520 and 495 nm. To generate dose response curves the data is normalized to percent inhibition by setting the average of the plus and minus enzyme control wells to 0% and 100% inhibition respectively. The IC50 values for the compounds are generated by fitting the normalized data with Accelrys Assay Explorer 3.3 to a sigmoidal curve model using […] regression, Y=(100*x^n)/(K^n+x^n), where Y is the measured response, x is the compound concentration, n is the Hill Slope and K is the IC50 and the lower and higher asymptotes are constrained to 0 and 100 respectively.

SUV420H1 enzyme, sequence (Q4FZB7 whole entry): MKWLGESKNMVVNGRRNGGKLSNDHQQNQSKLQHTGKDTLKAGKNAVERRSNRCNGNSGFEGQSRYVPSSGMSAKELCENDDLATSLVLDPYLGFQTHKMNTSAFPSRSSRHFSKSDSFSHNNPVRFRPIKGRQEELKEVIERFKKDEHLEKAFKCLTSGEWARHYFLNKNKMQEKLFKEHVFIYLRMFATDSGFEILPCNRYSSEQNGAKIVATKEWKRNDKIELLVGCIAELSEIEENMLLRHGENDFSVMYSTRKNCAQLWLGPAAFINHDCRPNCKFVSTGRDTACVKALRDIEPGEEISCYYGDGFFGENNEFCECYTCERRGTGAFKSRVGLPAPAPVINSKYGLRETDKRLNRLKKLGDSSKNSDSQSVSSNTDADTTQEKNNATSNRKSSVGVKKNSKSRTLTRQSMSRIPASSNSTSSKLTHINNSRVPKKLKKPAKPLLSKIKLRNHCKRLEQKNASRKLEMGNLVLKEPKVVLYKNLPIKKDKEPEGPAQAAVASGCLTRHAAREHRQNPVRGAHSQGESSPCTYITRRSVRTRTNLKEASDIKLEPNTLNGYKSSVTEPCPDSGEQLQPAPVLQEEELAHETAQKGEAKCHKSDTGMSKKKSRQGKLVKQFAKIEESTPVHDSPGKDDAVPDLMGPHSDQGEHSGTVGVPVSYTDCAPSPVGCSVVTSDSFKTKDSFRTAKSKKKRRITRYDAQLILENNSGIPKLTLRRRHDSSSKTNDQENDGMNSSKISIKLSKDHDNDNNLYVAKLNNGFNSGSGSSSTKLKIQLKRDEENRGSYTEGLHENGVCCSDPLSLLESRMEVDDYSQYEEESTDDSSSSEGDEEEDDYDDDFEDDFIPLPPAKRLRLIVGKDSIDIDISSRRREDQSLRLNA

SMILES	IC50 [µM]
Cc1nnccc1C(=O)NCc1cc2cc(C3=CCN(C(=O)OC(C)(C)C)CC3)cc(Cn3cnc4c(N)ncnc43)c2[nH]1 [Example 204, tert-butyl 4-{7-[(6-amino-9H-purin-9-yl)methyl]-2-({[(3-methylpyridazin-4-yl)carbonyl]amino}methyl)-1H-indol-5-yl}-3,6-dihydropyridine-1(2H)-carboxylate]	0.0532
Cc1onc(-c2ccccc2)c1C(=O)NCc1cc2cc(Cl)cc(Cn3cnc4c(N)ncnc43)c2[nH]1 [Example 326, N-({7-[(6-amino-9H-purin-9-yl)methyl]-5-chloro-1H-indol-2-yl}methyl)-5-methyl-3-phenyl-1,2-oxazole-4-carboxamide]	6.2
Nc1ncnc2c1ncn2Cc1cc(Cl)cc2cc(CNC(=O)C3CCOC3)[nH]c12 (stereo not drawn) [Example 114, N-({7-[(6-amino-9H-purin-9-yl)methyl]-5-chloro-1H-indol-2-yl}methyl)tetrahydrofuran-3-carboxamide]	8.16
Nc1ncnc2c1ncn2Cc1cc(Cl)cc2cc(CNC(=O)c3ccccc3C(=O)N3CCCC3)[nH]c12 [Example 320, N-({7-[(6-amino-9H-purin-9-yl)methyl]-5-chloro-1H-indol-2-yl}methyl)-2-(pyrrolidin-1-ylcarbonyl)benzamide]	8.03
Cc1noc(C)c1C(=O)NCc1cc2cc(-c3ccccc3)cc(Cn3cnc4c(N)ncnc43)c2[nH]1 [Example 164, N-({7-[(6-amino-9H-purin-9-yl)methyl]-5-phenyl-1H-indol-2-yl}methyl)-3,5-dimethyl-1,2-oxazole-4-carboxamide]	0.139
NCc1cc2cc(-c3ccc(F)cc3)cc(Cn3cnc4c(N)ncnc43)c2[nH]1 [Example 26, 9-{[2-(aminomethyl)-5-(4-fluorophenyl)-1H-indol-7-yl]methyl}-9H-purin-6-amine]	0.474
Cc1nc(N)c2ncn(Cc3cccc4cc[nH]c34)c2n1 [Example 4, 9-(1H-indol-7-ylmethyl)-2-methyl-9H-purin-6-amine]	14.1
Cn1ccnc1-c1ccccc1C(=O)NCc1cc2cc(Cl)cc(Cn3cnc4c(N)ncnc43)c2[nH]1 [Example 327, N-({7-[(6-amino-9H-purin-9-yl)methyl]-5-chloro-1H-indol-2-yl}methyl)-2-(1-methyl-1H-imidazol-2-yl)benzamide]	5.28
Nc1ncnc2c1ncn2Cc1cc(Cl)cc2cc(CNC(=O)C3CCCO3)[nH]c12 (stereo not drawn) [Example 113, N-({7-[(6-amino-9H-purin-9-yl)methyl]-5-chloro-1H-indol-2-yl}methyl)tetrahydrofuran-2-carboxamide]	> 50
C=C(C)c1ccc2cc(CN)[nH]c2c1Cn1cnc2c(N)ncnc21 [Example 60, 9-{[2-(aminomethyl)-6-(prop-1-en-2-yl)-1H-indol-7-yl]methyl}-9H-purin-6-amine]	38.4
CN(C)CCNC(=O)c1ccc(-c2cc(Cn3cnc4c(N)ncnc43)c3[nH]c(CN)cc3c2)cc1 [Example 49, 4-{2-(aminomethyl)-7-[(6-amino-9H-purin-9-yl)methyl]-1H-indol-5-yl}-N-[2-(dimethylamino)ethyl]benzamide]	0.193
Nc1ncnc2c1ncn2Cc1cc(Cl)cc2cc(CNC(=O)Cc3ccncc3)[nH]c12 [Example 232, N-({7-[(6-amino-9H-purin-9-yl)methyl]-5-chloro-1H-indol-2-yl}methyl)-2-(pyridin-4-yl)acetamide]	1.98
Cn1nccc1C(=O)NCc1cc2cc(Cl)cc(Cn3cnc4c(N)ncnc43)c2[nH]1 [Example 152, N-({7-[(6-amino-9H-purin-9-yl)methyl]-5-chloro-1H-indol-2-yl}methyl)-1-methyl-1H-pyrazole-5-carboxamide]	1.08
CC(=O)N1CCC(c2cc(Cn3cnc4c(N)ncnc43)c3[nH]c(CNC(=O)c4ccc(C#N)cc4Cl)cc3c2)CC1 [Example 281, N-({5-(1-acetylpiperidin-4-yl)-7-[(6-amino-9H-purin-9-yl)methyl]-1H-indol-2-yl}methyl)-2-chloro-4-cyanobenzamide]	0.141
Cc1n[nH]c2ncc(C(=O)NCc3cc4cc(Cl)cc(Cn5cnc6c(N)ncnc65)c4[nH]3)cc12 [Example 353, N-({7-[(6-amino-9H-purin-9-yl)methyl]-5-chloro-1H-indol-2-yl}methyl)-3-methyl-1H-pyrazolo[3,4-b]pyridine-5-carboxamide]	> 50
Cc1c(C)n(C)c2ccc(C(=O)NCc3cc4cc(Cl)cc(Cn5cnc6c(N)ncnc65)c4[nH]3)cc12 [Example 378, N-({7-[(6-amino-9H-purin-9-yl)methyl]-5-chloro-1H-indol-2-yl}methyl)-1,2,3-trimethyl-1H-indole-5-carboxamide]	6.26
CC(=O)N1CC=C(c2cc(Cn3cnc4c(N)ncnc43)c3[nH]c(CNC(=O)c4ccnnc4C)cc3c2)CC1 [Example 203, N-({5-(1-acetyl-1,2,3,6-tetrahydropyridin-4-yl)-7-[(6-amino-9H-purin-9-yl)methyl]-1H-indol-2-yl}methyl)-3-methylpyridazine-4-carboxamide]	0.0277
Nc1ncnc2c1ncn2Cc1cc(Cl)cc2cc(CNC(=O)c3cnccn3)[nH]c12 [Example 193, N-({7-[(6-amino-9H-purin-9-yl)methyl]-5-chloro-1H-indol-2-yl}methyl)pyrazine-2-carboxamide]	20
Cc1nnccc1C(=O)NCc1cc2cc(C3=CCNCC3)cc(Cn3cnc4c(N)ncnc43)c2[nH]1 [Example 200, N-({7-[(6-amino-9H-purin-9-yl)methyl]-5-(1,2,3,6-tetrahydropyridin-4-yl)-1H-indol-2-yl}methyl)-3-methylpyridazine-4-carboxamide]	0.1
Cc1[nH]c2cc(C(=O)NCc3cc4cc(Cl)cc(Cn5cnc6c(N)ncnc65)c4[nH]3)ccc2c1C [Example 374, N-({7-[(6-amino-9H-purin-9-yl)methyl]-5-chloro-1H-indol-2-yl}methyl)-2,3-dimethyl-1H-indole-6-carboxamide]	0.261
Nc1ncnc2c1ncn2Cc1cc(Cl)cc2cc(CNC(=O)Cc3cccc(F)c3)[nH]c12 [Example 255, N-({7-[(6-amino-9H-purin-9-yl)methyl]-5-chloro-1H-indol-2-yl}methyl)-2-(3-fluorophenyl)acetamide]	15.5
Cc1noc(C)c1C(=O)NCc1cc2cc(-c3cccc(C(=O)N(C)C)c3)cc(Cn3cnc4c(N)ncnc43)c2[nH]1 [Example 177, N-({7-[(6-amino-9H-purin-9-yl)methyl]-5-[3-(dimethylcarbamoyl)phenyl]-1H-indol-2-yl}methyl)-3,5-dimethyl-1,2-oxazole-4-carboxamide]	0.106
Cc1noc(C)c1C(=O)NCc1cc2cc(-c3ccc(F)cc3)cc(Cn3cnc4c(N)ncnc43)c2[nH]1 [Example 165, N-({7-[(6-amino-9H-purin-9-yl)methyl]-5-(4-fluorophenyl)-1H-indol-2-yl}methyl)-3,5-dimethyl-1,2-oxazole-4-carboxamide]	0.233
COc1cccc(-c2cc(Cn3cnc4c(N)ncnc43)c3[nH]c(CN)cc3c2)c1 [Example 35, 9-{[2-(aminomethyl)-5-(3-methoxyphenyl)-1H-indol-7-yl]methyl}-9H-purin-6-amine]	1.09
CC(=O)N1CC=C(c2cc(Cn3cnc4c(N)ncnc43)c3[nH]c(CN)cc3c2)CC1 [Example 15, 1-[4-{2-(aminomethyl)-7-[(6-amino-9H-purin-9-yl)methyl]-1H-indol-5-yl}-3,6-dihydropyridin-1(2H)-yl]ethanone]	0.154
Nc1ncnc2c1ncn2Cc1cc(Cl)cc2cc(CNC(=O)c3cnoc3C3CC3)[nH]c12 [Example 189, N-({7-[(6-amino-9H-purin-9-yl)methyl]-5-chloro-1H-indol-2-yl}methyl)-5-cyclopropyl-1,2-oxazole-4-carboxamide]	3.36
Cc1scnc1C(=O)NCc1cc2cc(Cl)cc(Cn3cnc4c(N)ncnc43)c2[nH]1 [Example 147, N-({7-[(6-amino-9H-purin-9-yl)methyl]-5-chloro-1H-indol-2-yl}methyl)-5-methyl-1,3-thiazole-4-carboxamide]	5.79
COc1cccc(CCC(=O)NCc2cc3cc(Cl)cc(Cn4cnc5c(N)ncnc54)c3[nH]2)c1 [Example 316, N-({7-[(6-amino-9H-purin-9-yl)methyl]-5-chloro-1H-indol-2-yl}methyl)-3-(3-methoxyphenyl)propanamide]	13
Nc1ncnc2c1ncn2Cc1cc(Cl)cc2cc(CNC(=O)c3nc4[nH]ccc4cc3Cl)[nH]c12 [Example 349, N-({7-[(6-amino-9H-purin-9-yl)methyl]-5-chloro-1H-indol-2-yl}methyl)-5-chloro-1H-pyrrolo[2,3-b]pyridine-6-carboxamide]	8.78
CC(=O)N1CC=C(c2cc(Cn3cnc4c(N)ncnc43)c3[nH]c(CNC(=O)c4cc(C)nnc4C)cc3c2)CC1 [Example 237, N-({5-(1-acetyl-1,2,3,6-tetrahydropyridin-4-yl)-7-[(6-amino-9H-purin-9-yl)methyl]-1H-indol-2-yl}methyl)-3,6-dimethylpyridazine-4-carboxamide]	0.0288
